Reference: ChEMBL document CHEMBL3784933, “Synthesis and antitumor evaluation of trimethoxyanilides based on 4(3H)-quinazolinone scaffolds” (2016)

Columns and labels:
Assay type in all cases: functional
CCRF-CEM = assay: Cytotoxicity against human CCRF-CEM cells assessed as growth inhibition at 10 uM after 48 hrs by SRB assay; settings: read-out: GI
K562 = assay: Cytotoxicity against human K562 cells assessed as growth inhibition at 10 uM after 48 hrs by SRB assay; settings: K562, 48 h, read-out: GI
[1] = Cytotoxicity against human MOLT4 cells assessed as growth inhibition at 10 uM after 48 hrs by SRB assay; settings: MOLT-4, 48 h, read-out: GI
[2] = Cytotoxicity against human RPMI8226 cells assessed as growth inhibition at 10 uM after 48 hrs by SRB assay; settings: RPMI-8226, 48 h, read-out: GI
SR = assay: Cytotoxicity against human SR cells assessed as growth inhibition at 10 uM after 48 hrs by SRB assay; settings: read-out: GI
A549 = assay: Cytotoxicity against human A549 cells assessed as growth inhibition at 10 uM after 48 hrs by SRB assay; settings: A549, 48 h, read-out: GI
NCI-H226 = assay: Cytotoxicity against human NCI-H226 cells assessed as growth inhibition at 10 uM after 48 hrs by SRB assay; settings: NCI-H226, 48 h, read-out: GI
NCI-H522 = assay: Cytotoxicity against human NCI-H522 cells assessed as growth inhibition at 10 uM after 48 hrs by SRB assay; settings: NCI-H522, 48 h, read-out: GI
[3] = Cytotoxicity against human HCT116 cells assessed as growth inhibition at 10 uM after 48 hrs by SRB assay; settings: HCT-116, 48 h, read-out: GI
[4] = Cytotoxicity against human HCT15 cells assessed as growth inhibition at 10 uM after 48 hrs by SRB assay; settings: HCT-15, 48 h, read-out: GI
[5] = Cytotoxicity against human SF268 cells assessed as growth inhibition at 10 uM after 48 hrs by SRB assay; settings: SF-268, 48 h, read-out: GI
[6] = Cytotoxicity against human SF295 cells assessed as growth inhibition at 10 uM after 48 hrs by SRB assay; settings: SF-295, 48 h, read-out: GI
[7] = Cytotoxicity against human SF539 cells assessed as growth inhibition at 10 uM after 48 hrs by SRB assay; settings: SF-539, 48 h, read-out: GI
[8] = Cytotoxicity against human SNB19 cells assessed as growth inhibition at 10 uM after 48 hrs by SRB assay; settings: SNB-19, 48 h, read-out: GI
[9] = Cytotoxicity against human SNB75 cells assessed as growth inhibition at 10 uM after 48 hrs by SRB assay; settings: SNB-75, 48 h, read-out: GI
U-251 = assay: Cytotoxicity against human U251 cells assessed as growth inhibition at 10 uM after 48 hrs by SRB assay; settings: U-251, 48 h, read-out: GI
[10] = Cytotoxicity against human LOXIMVI cells assessed as growth inhibition at 10 uM after 48 hrs by SRB assay; settings: LOX IMVI, read-out: GI
SK-MEL-5 = assay: Cytotoxicity against human SK-MEL-5 cells assessed as growth inhibition at 10 uM after 48 hrs by SRB assay; settings: SK-MEL-5, 48 h, read-out: GI
[11] = Cytotoxicity against human UACC257 cells assessed as growth inhibition at 10 uM after 48 hrs by SRB assay; settings: UACC-257, 48 h, read-out: GI
[12] = Cytotoxicity against human UACC62 cells assessed as growth inhibition at 10 uM after 48 hrs by SRB assay; settings: UACC-62, 48 h, read-out: GI
786-0 = assay: Cytotoxicity against human 786-0 cells assessed as growth inhibition at 10 uM after 48 hrs by SRB assay; settings: 786-0, 48 h, read-out: GI
A498 = assay: Cytotoxicity against human A498 cells assessed as growth inhibition at 10 uM after 48 hrs by SRB assay; settings: A498, 48 h, read-out: GI
ACHN = assay: Cytotoxicity against human ACHN cells assessed as growth inhibition at 10 uM after 48 hrs by SRB assay; settings: read-out: GI
[13] = Cytotoxicity against human Caki1 cells assessed as growth inhibition at 10 uM after 48 hrs by SRB assay; settings: CAKI-1, 48 h, read-out: GI
[14] = Cytotoxicity against human RXF393 cells assessed as growth inhibition at 10 uM after 48 hrs by SRB assay; settings: RXF 393, 48 h, read-out: GI
SN12C = assay: Cytotoxicity against human SN12C cells assessed as growth inhibition at 10 uM after 48 hrs by SRB assay; settings: read-out: GI
[15] = Cytotoxicity against human UO31 cells assessed as growth inhibition at 10 uM after 48 hrs by SRB assay; settings: UO-31, 48 h, read-out: GI
[16] = Cytotoxicity against human PC3 cells assessed as growth inhibition at 10 uM after 48 hrs by SRB assay; settings: PC-3, 48 h, read-out: GI
MCF7 = assay: Cytotoxicity against human MCF7 cells assessed as growth inhibition at 10 uM after 48 hrs by SRB assay; settings: MCF7, 48 h, read-out: GI
MDA-MB-231 = assay: Cytotoxicity against human MDA-MB-231 cells assessed as growth inhibition at 10 uM after 48 hrs by SRB assay; settings: MDA-MB-231, 48 h, read-out: GI
[17] = Cytotoxicity against human Hs 578T cells assessed as growth inhibition at 10 uM after 48 hrs by SRB assay; settings: read-out: GI
[18] = Cytotoxicity against human BT549 cells assessed as growth inhibition at 10 uM after 48 hrs by SRB assay; settings: BT-549, 48 h, read-out: GI
T47D = assay: Cytotoxicity against human T47D cells assessed as growth inhibition at 10 uM after 48 hrs by SRB assay; settings: read-out: GI
MDA-MB-468 = assay: Cytotoxicity against human MDA-MB-468 cells assessed as growth inhibition at 10 uM after 48 hrs by SRB assay; settings: MDA-MB-468, 48 h, read-out: GI
[19] = Cytotoxicity against human NCI-H322 cells assessed as growth inhibition at 10 uM after 48 hrs by SRB assay; settings: NCI-H322, 48 h, read-out: GI
[20] = Cytotoxicity against human HOP92 cells assessed as growth inhibition at 10 uM after 48 hrs by SRB assay; settings: HOP-92, 48 h, read-out: GI
Malme-3M = assay: Cytotoxicity against human MALME-3M cells assessed as growth inhibition at 10 uM after 48 hrs by SRB assay; settings: read-out: GI
M14 = assay: Cytotoxicity against human M14 cells assessed as growth inhibition at 10 uM after 48 hrs by SRB assay; settings: M14, 48 h, read-out: GI
SK-MEL-2 = assay: Cytotoxicity against human SK-MEL-2 cells assessed as growth inhibition at 10 uM after 48 hrs by SRB assay; settings: SK-MEL-2, 48 h, read-out: GI
[21] = Cytotoxicity against human OVCAR3 cells assessed as growth inhibition at 10 uM after 48 hrs by SRB assay; settings: OVCAR-3, 48 h, read-out: GI
[22] = Cytotoxicity against human OVCAR8 cells assessed as growth inhibition at 10 uM after 48 hrs by SRB assay; settings: OVCAR-8, 48 h, read-out: GI
[23] = Cytotoxicity against human NCI-ADR-RES cells assessed as growth inhibition at 10 uM after 48 hrs by SRB assay; settings: read-out: GI
[24] = Cytotoxicity against human SKOV3 cells assessed as growth inhibition at 10 uM after 48 hrs by SRB assay; settings: SK-OV-3, 48 h, read-out: GI

| SMILES | inhibition of growth at 10 µM (CCRF-CEM) | inhibition of growth at 10 µM (A549) | inhibition of growth at 10 µM (NCI-H522) | inhibition of growth at 10 µM [5] | inhibition of growth at 10 µM [6] | inhibition of growth at 10 µM [7] | inhibition of growth at 10 µM [8] | inhibition of growth at 10 µM [9] | inhibition of growth at 10 µM (U-251) | inhibition of growth at 10 µM (SK-MEL-5) | inhibition of growth at 10 µM [11] | inhibition of growth at 10 µM [12] | inhibition of growth at 10 µM (A498) | inhibition of growth at 10 µM (SN12C) | inhibition of growth at 10 µM [15] | inhibition of growth at 10 µM [16] | inhibition of growth at 10 µM (MDA-MB-231) | inhibition of growth at 10 µM [17] | inhibition of growth at 10 µM [18] | inhibition of growth at 10 µM (T47D) | further results |
| --- | --- | --- | --- | --- | --- | --- | --- | --- | --- | --- | --- | --- | --- | --- | --- | --- | --- | --- | --- | --- | --- |
| COc1cc(NC(=O)CCSc2nc3ccc(Cl)cc3c(=O)n2-c2ccc(F)cc2)cc(OC)c1OC | 24% | 28% | 55% | 19% | 30% | 10% | 15% | 59% | 16% | 20% | 25% | 22% | 88% | 18% | 51% | 51% | 42% | 34% | 12% | 27% | inhibition of growth at 10 µM (K562): 22%; inhibition of growth at 10 µM [1]: 28%; inhibition of growth at 10 µM [2]: 47%; inhibition of growth at 10 µM (SR): 23%; inhibition of growth at 10 µM (NCI-H226): 18%; inhibition of growth at 10 µM [3]: 13%; inhibition of growth at 10 µM [4]: 16%; inhibition of growth at 10 µM [10]: 24%; inhibition of growth at 10 µM (786-0): 19%; inhibition of growth at 10 µM (ACHN): 21%; inhibition of growth at 10 µM [13]: 34%; inhibition of growth at 10 µM [14]: 25%; inhibition of growth at 10 µM (MCF7): 21%; inhibition of growth at 10 µM (MDA-MB-468): 17%; inhibition of growth at 10 µM [19]: 16% |
| COc1cc2nc(SCC(=O)Nc3cc(OC)c(OC)c(OC)c3)n(-c3ccccc3)c(=O)c2cc1OC | 18% | 14% | 52% | 19% | 11% | 17% | 17% | 20% | 30% | 10% | 26% | 19% | 28% | 11% | 34% | 17% | 16% | 34% | 13% | 15% | inhibition of growth at 10 µM [20]: 32%; inhibition of growth at 10 µM (Malme-3M): 20%; inhibition of growth at 10 µM (M14): 15%; inhibition of growth at 10 µM (SK-MEL-2): 22%; inhibition of growth at 10 µM [21]: 12%; inhibition of growth at 10 µM [22]: 40%; inhibition of growth at 10 µM [23]: 10%; inhibition of growth at 10 µM [24]: 12% |
